Measurements: patent US20050192347A1, “Urea and thiourea compounds and compositions for cholesterol management and related uses” (priority 2003, published 2005)

Experiments:
obese female Zucker rats = experiment: Oral daily treatment of obese female Zucker rats for fourteen days: serum lipids, glycemic control indicators, body weight; format: in vivo, rat; conditions: 14 days; for Glucose, Percent Change from Pre-treatment: blood, 6-hour fast; for Glucose, Percent Change from Pre-treatment / BHA, Percent Change from Pre-treatment / NEFA, Percent Change from Pre-treatment / HDL-C/nonHDL-C / HDL-C, Percent Change from Pre-treatment / Insulin, Percent Change from Pre-treatment / Non HDL-C, Percent Change from Pre-treatment / TC, Percent Change from Pre-treatment / TG, Percent Change from Pre-treatment: oral; for % wt. gain: oral gavage; for BHA, Percent Change from Pre-treatment: serum beta hydroxy butyric acid; for NEFA, Percent Change from Pre-treatment: serum non-esterified fatty acids; for HDL-C/nonHDL-C: serum ratio; for HDL-C, Percent Change from Pre-treatment / Insulin, Percent Change from Pre-treatment / Non HDL-C, Percent Change from Pre-treatment / TC, Percent Change from Pre-treatment / TG, Percent Change from Pre-treatment: serum
Procedure: In a number of different experiments, illustrative compounds A and A1 of the invention were administered daily at a dose of up to 100 mg/kg to chow-fed obese female Zucker rats for fourteen days in the morning by oral gavage in 1.5% carboxymethylcellulose/0.2% Tween-20 or 20% ethanol/80% polyethylene glycol (dosing vehicles). Animals were weighed daily. Animals were allowed free access to rodent chow and water throughout the study except on days of blood sampling where food was restricted for six hours prior to blood sampling. Blood glucose was determined after the 6-hour fast in the afternoon without anesthesia from a tail vein. Serum was also prepared from pretreatment blood samples subsequently obtained from the orbital venous plexus (with O2/CO2 anesthesia) and following the fourteenth dose at sacrifice from the heart following O2/CO2 anesthesia. Serums were assayed for lipoprotein cholesterol profiles, triglycerides, total cholesterol, NonHDL cholesterol, HDL cholesterol, the ratio of HDL cholesterol to that of Non-HDL cholesterol, insulin, non-esterified fatty acids, and beta hydroxy butyric acid. The percent body weight gain and the ratio of liver to body weight was also determined. These are shown as absolute values or as a percent change of the pretreatment values in Table 4. [drawing 300]

primary rat hepatocytes = experiment: Inhibition of lipid synthesis ([1-14C]-acetate incorporation) in primary cultures of rat hepatocytes; format: cell-based; conditions: 0-300 μM
Procedure: Compounds were tested for inhibition of lipid synthesis in primary cultures of rat hepatocytes. Male Sprague-Dawley rats were anesthetized with intraperitoneal injection of sodium pentobarbital (80 mg/kg). Rat hepatocytes were isolated essentially as described by the method of Seglen (Seglen, P. O. Hepatocyte suspensions and cultures as tools in experimental carcinogenesis. J. Toxicol. Environ. Health 1979, 5, 551-560). Hepatocytes were suspended in Dulbecco's Modified Eagles Medium containing 25 mM D-glucose, 14 mM HEPES, 5 mM L-glutamine, 5 mM leucine, 5 mM alanine, 10 mM lactate, 1 mM pyruvate, 0.2% bovine serum albumin, 17.4 mM non-essential amino acids, 20% fetal bovine serum, 100 nM insulin and 20 μg/mL gentamycin) and plated at a density of 1.5×10^5 cells/cm^2 on collagen-coated 96-well plates. Four hours after plating, media was replaced with the same media without serum. Cells were grown overnight to allow formation of monolayer cultures. Lipid synthesis incubation conditions were initially assessed to ensure the linearity of [1-^14C]-acetate incorporation into hepatocyte lipids for up to 4 hours. Hepatocyte lipid synthesis inhibitory activity was assessed during incubations in the presence of 0.25 μCi [1-^14C]-acetate/well (final radiospecific activity in assay is 1 Ci/mol) and 0, 1, 3, 10, 30, 100 or 300 μM of compounds for 4 hours. At the end of the 4-hour incubation period, medium was discarded and cells were washed twice with ice-cold phosphate buffered saline and stored frozen prior to analysis. To determine total lipid synthesis, 170 μl of MicroScint-E® and 50 μl water was added to each well to extract and partition the lipid soluble products to the upper organic phase containing the scintillant. Lipid radioactivity was assessed by scintillation spectroscopy in a Packard TopCount NXT.

[1] = Rattus norvegicus, Hepatocyte, 4 h

CC(C)(CO)CCCCNC(=O)NCCCCC(C)(C)CO [A, 1,3-bis-(6-hydroxy-5,5-dimethyl-hexyl)-urea]
Glucose, Percent Change from Pre-treatment (obese female Zucker rats; 100 mg/kg/day): 2% | % wt. gain (obese female Zucker rats; 100 mg/kg/day): 4% | BHA, Percent Change from Pre-treatment (obese female Zucker rats; 100 mg/kg/day): 172% | NEFA, Percent Change from Pre-treatment (obese female Zucker rats; 100 mg/kg/day): 8% | HDL-C/nonHDL-C (obese female Zucker rats; 100 mg/kg/day): 2.7 | HDL-C, Percent Change from Pre-treatment (obese female Zucker rats; 100 mg/kg/day): 92% | Insulin, Percent Change from Pre-treatment (obese female Zucker rats; 100 mg/kg/day): 60% | Non HDL-C, Percent Change from Pre-treatment (obese female Zucker rats; 100 mg/kg/day): −5% | TC, Percent Change from Pre-treatment (obese female Zucker rats; 100 mg/kg/day): 50% | TG, Percent Change from Pre-treatment (obese female Zucker rats; 100 mg/kg/day): −31%

CC(C)(CO)CCCCNC(=O)NCCCC(C)(C)CO [Compound 213, 1-(5-Hydroxy-4,4-dimethylpentyl)-3-(6-hydroxy-5,5-dimethylhexyl)urea]
IC50 (primary rat hepatocytes; [1]): 34 µM

CC(C)(CO)CCCCNC(=O)NCCCc1ccccc1 [Compound 216, 1-(6-Hydroxy-5,5-dimethylhexyl)-3-(3-phenylpropyl)urea]
IC50 (primary rat hepatocytes; [1]): 51 µM

CC(C)(CO)CCCCNC(=O)NCCCCc1ccccc1 [Compound 217, 1-(6-Hydroxy-5,5-dimethylhexyl)-3-(4-phenylbutyl)urea]
IC50 (primary rat hepatocytes; [1]): 221 µM

CCOC(=O)CCCCCNC(=O)NCCCCC(C)(C)CO [Compound 219, Ethyl 6-(3-(6-hydroxy-5,5-dimethylhexyl)ureido)hexanoate]
IC50 (primary rat hepatocytes; [1]): 82 µM

CC(C)(CO)CCCCNC(=O)NCCCCC(C)(CO)c1ccccc1 (centres unmarked) [Compound 220, 1-(6-Hydroxy-5,5-dimethylhexyl)-3-(6-hydroxy-5-methyl-5-phenylhexyl)urea]
IC50 (primary rat hepatocytes; [1]): 8.8 µM

CC(CO)(CCCCNC(=O)NCCc1ccccc1)c1ccccc1 (centres unmarked) [Compound 222, 1-(6-Hydroxy-5-methyl-5-phenylhexyl)-3-phenethylurea]
IC50 (primary rat hepatocytes; [1]): 264 µM

CC(CO)(CCCCNC(=O)NCCCc1ccccc1)c1ccccc1 (centres unmarked) [Compound 223, 1-(6-Hydroxy-5-methyl-5-phenylhexyl)-3-(3-phenylpropyl)urea]
IC50 (primary rat hepatocytes; 4 hours): 77 µM | IC50 (primary rat hepatocytes; [1]): 137 µM

CCOC(=O)CCCCCNC(=O)NCCCCC(C)(CO)c1ccccc1 (centres unmarked) [Compound 225, Ethyl 6-(3-(6-hydroxy-5-methyl-5-phenylhexyl)ureido)hexanoate]
IC50 (primary rat hepatocytes; [1]): 128 µM

CC(CO)(CCCCCNC(=O)NCCCCC(C)(CO)c1ccccc1)c1ccccc1 (centres unmarked) [Compound 226, 1-(6-Hydroxy-5-methyl-5-phenylhexyl)-3-(7-hydroxy-6-methyl-6-phenylheptyl)urea]
IC50 (primary rat hepatocytes; [1]): 88 µM

CC(CO)(CCCCCNC(=O)NCCc1ccccc1)c1ccccc1 (centres unmarked) [Compound 227, 1-(7-Hydroxy-6-methyl-6-phenylheptyl)-3-phenethylurea]
IC50 (primary rat hepatocytes; [1]): 223 µM

CC(CO)(CCCCCNC(=O)NCCCc1ccccc1)c1ccccc1 (centres unmarked) [Compound 228, 1-(7-hydroxy-6-methyl-6-phenylheptyl)-3-(3-phenylpropyl)urea]
IC50 (primary rat hepatocytes; [1]): 101 µM

COC(=O)CCCNC(=O)NCCCCCC(C)(CO)c1ccccc1 (centres unmarked) [Compound 230]
IC50 (primary rat hepatocytes; [1]): 103 µM

CC(CO)(CCCCCNC(=O)NCCCCCC(C)(CO)c1ccccc1)c1ccccc1 (centres unmarked) [Compound 231, 1,3-Bis(7-hydroxy-6-methyl-6-phenylheptyl)urea]
IC50 (primary rat hepatocytes; [1]): 39 µM

CC(C)(CO)CCCCNC(=S)NCCCCC(C)(C)CO [Compound A1, 1,3-bis-(6-hydroxy-5,5-dimethylhexyl)-thiourea]
Glucose, Percent Change from Pre-treatment (obese female Zucker rats; 30 mg/kg/day): −4% | Glucose, Percent Change from Pre-treatment (obese female Zucker rats; 100 mg/kg/day): −15% | % wt. gain (obese female Zucker rats; 30 mg/kg/day): 10% | % wt. gain (obese female Zucker rats; 100 mg/kg/day): 7% | BHA, Percent Change from Pre-treatment (obese female Zucker rats; 30 mg/kg/day): 283% | BHA, Percent Change from Pre-treatment (obese female Zucker rats; 100 mg/kg/day): 305% | NEFA, Percent Change from Pre-treatment (obese female Zucker rats; 30 mg/kg/day): 11% | NEFA, Percent Change from Pre-treatment (obese female Zucker rats; 100 mg/kg/day): 34% | HDL-C/nonHDL-C (obese female Zucker rats; 30 mg/kg/day): 2.0 | HDL-C/nonHDL-C (obese female Zucker rats; 100 mg/kg/day): 1.3 | HDL-C, Percent Change from Pre-treatment (obese female Zucker rats; 30 mg/kg/day): −11% | Insulin, Percent Change from Pre-treatment (obese female Zucker rats; 30 mg/kg/day): −29% | Non HDL-C, Percent Change from Pre-treatment (obese female Zucker rats; 30 mg/kg/day): 32% | TC, Percent Change from Pre-treatment (obese female Zucker rats; 30 mg/kg/day): −9% | TG, Percent Change from Pre-treatment (obese female Zucker rats; 30 mg/kg/day): 7% | HDL-C, Percent Change from Pre-treatment (obese female Zucker rats; 100 mg/kg/day): 2% | Insulin, Percent Change from Pre-treatment (obese female Zucker rats; 100 mg/kg/day): 10% | Non HDL-C, Percent Change from Pre-treatment (obese female Zucker rats; 100 mg/kg/day): −29% | TC, Percent Change from Pre-treatment (obese female Zucker rats; 100 mg/kg/day): −7% | TG, Percent Change from Pre-treatment (obese female Zucker rats; 100 mg/kg/day): −15%
